Data published in ChEMBL document CHEMBL5465560, “Selectivity Literature for EUbOPEN Chemogenomic Library” (2024).

Experiments:
[1] = biological target: Wee1-like protein kinase (Homo sapiens) (UniProt P30291); conditions: at 10 µM
[2] = biological target: Protein-tyrosine kinase 6 (Homo sapiens, UniProt Q13882); assay: Selectivity interaction (KinaseProfiler screening (Millipore, enzymatic assay)) EUB0000601a PTK6
[3] = biological target: Tyrosine-protein kinase Lyn (Homo sapiens, UniProt P07948); assay: Selectivity interaction (KinaseProfiler screening (Millipore)) EUB0000601a LYN; conditions: at 3 µM
[4] = biological target: RAC-beta serine/threonine-protein kinase (Homo sapiens) (UniProt P31751); assay: Selectivity interaction (Kinase screening (Nanosyn)) EUB0000604a AKT2
[5] = biological target: Casein kinase I isoform epsilon (Homo sapiens, UniProt P49674); assay: Selectivity interaction (Ambit KINOMEscan and KiNATiv profiling in Jurkat cells) EUB0000090b CSNK1E; format: cell-based; conditions: at 1 µM
[6] = biological target: T1, 3-phosphoinositide-dependent protein kinase 1 (Homo sapiens) (UniProt O15530); assay: Selectivity interaction (Kinase panel (literature)) EUB0001199aCl PDPK1; conditions: at 1 µM
T1 sequence (whole entry): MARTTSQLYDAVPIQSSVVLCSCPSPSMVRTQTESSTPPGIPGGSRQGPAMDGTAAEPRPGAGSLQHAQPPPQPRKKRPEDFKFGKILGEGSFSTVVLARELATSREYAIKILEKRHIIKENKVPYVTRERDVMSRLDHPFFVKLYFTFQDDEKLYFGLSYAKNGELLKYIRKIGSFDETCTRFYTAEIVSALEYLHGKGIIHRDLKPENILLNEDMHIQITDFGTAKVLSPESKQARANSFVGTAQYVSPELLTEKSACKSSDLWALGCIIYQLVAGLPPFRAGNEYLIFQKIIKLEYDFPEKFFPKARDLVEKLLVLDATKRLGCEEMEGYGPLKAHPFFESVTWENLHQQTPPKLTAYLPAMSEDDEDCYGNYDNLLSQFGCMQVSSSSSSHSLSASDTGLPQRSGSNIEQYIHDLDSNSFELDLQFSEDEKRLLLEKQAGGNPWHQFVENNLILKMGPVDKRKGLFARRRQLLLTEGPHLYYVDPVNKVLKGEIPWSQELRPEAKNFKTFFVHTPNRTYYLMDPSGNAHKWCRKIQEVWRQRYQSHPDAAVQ

[7] = biological target: cAMP-dependent protein kinase catalytic subunit beta (Homo sapiens) (UniProt P22694); assay: Selectivity interaction (LanthaScreen Eu Kinase Binding Assay) EUB0001632a PRKACB; conditions: at 10 µM
[8] = biological target: Serine/threonine-protein kinase WNK4 (Homo sapiens) (UniProt Q96J92); assay: Selectivity interaction (KinomeScan (DiscoverX)) EUB0000695a WNK4; conditions: at 100 nM
[9] = biological target: Mitogen-activated protein kinase 3 (Homo sapiens, UniProt P27361); assay: Selectivity interaction (KinomeScan (DiscoverX)) EUB0000655a MAPK3; conditions: at 10 µM
[10] = biological target: T2, Serine/threonine-protein kinase 3 (Homo sapiens) (UniProt Q13188); assay: Selectivity interaction (KinomeScan (DiscoverX)) EUB0000655a STK3; conditions: at 10 µM
T2 sequence (whole entry): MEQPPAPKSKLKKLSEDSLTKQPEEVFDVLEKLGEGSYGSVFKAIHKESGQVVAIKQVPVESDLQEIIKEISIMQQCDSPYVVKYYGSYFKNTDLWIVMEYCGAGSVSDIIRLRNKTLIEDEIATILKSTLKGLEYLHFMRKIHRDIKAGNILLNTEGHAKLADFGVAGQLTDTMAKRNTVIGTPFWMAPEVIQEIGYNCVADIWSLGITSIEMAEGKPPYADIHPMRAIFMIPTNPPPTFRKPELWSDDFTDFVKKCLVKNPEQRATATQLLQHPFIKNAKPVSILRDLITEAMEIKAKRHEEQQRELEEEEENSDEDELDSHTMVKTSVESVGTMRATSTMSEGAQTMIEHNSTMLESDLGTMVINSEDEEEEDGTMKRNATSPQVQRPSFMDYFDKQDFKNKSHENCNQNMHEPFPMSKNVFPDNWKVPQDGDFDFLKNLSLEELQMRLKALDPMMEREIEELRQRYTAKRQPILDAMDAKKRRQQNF

[11] = biological target: Serine/threonine-protein kinase SBK1 (Homo sapiens) (UniProt Q52WX2); assay: Selectivity interaction (KinomeScan (DiscoverX)) EUB0000618a SBK1; conditions: at 10 µM
[12] = biological target: Glycogen synthase kinase-3 beta (Homo sapiens, UniProt P49841); assay: Selectivity interaction (Kinase panel (DSF assay)) EUB0001559a GSK3B
[13] = biological target: T3, Serine/threonine-protein kinase LATS1 (Homo sapiens) (UniProt O95835); assay: Selectivity interaction (KinomeScan (DiscoverX)) EUB0000607a LATS1; conditions: at 10 µM
T3 sequence (whole entry): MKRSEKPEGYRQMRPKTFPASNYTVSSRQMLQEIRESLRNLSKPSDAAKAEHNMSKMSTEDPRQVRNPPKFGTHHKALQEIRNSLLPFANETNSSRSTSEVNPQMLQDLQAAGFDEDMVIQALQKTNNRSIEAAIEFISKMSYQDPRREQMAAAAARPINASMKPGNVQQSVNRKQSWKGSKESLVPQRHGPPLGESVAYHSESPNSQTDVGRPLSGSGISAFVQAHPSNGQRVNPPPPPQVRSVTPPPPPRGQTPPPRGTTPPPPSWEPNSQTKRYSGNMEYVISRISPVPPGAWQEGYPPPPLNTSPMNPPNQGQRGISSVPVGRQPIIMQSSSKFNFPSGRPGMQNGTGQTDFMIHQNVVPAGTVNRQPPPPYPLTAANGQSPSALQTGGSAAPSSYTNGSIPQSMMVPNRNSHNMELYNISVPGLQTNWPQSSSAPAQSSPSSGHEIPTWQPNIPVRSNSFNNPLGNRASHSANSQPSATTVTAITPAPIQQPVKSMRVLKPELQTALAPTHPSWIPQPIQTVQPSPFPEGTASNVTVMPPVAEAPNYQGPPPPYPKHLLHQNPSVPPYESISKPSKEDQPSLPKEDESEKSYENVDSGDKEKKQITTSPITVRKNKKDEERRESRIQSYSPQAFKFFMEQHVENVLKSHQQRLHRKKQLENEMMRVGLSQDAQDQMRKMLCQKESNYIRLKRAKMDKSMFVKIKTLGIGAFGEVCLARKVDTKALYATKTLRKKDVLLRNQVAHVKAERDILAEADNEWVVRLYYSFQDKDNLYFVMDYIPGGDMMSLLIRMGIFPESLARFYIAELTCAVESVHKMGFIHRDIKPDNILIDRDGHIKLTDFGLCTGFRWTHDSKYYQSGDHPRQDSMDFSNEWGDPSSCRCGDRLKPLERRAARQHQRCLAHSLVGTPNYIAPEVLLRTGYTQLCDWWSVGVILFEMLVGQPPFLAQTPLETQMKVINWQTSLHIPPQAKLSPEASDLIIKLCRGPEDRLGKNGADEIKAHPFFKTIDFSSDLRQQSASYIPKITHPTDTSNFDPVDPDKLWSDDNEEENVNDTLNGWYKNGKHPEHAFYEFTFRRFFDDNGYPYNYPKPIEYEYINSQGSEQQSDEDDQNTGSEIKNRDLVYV

Casein kinase I isoform epsilon, sequence (P49674 whole entry, looked up, canonical isoform): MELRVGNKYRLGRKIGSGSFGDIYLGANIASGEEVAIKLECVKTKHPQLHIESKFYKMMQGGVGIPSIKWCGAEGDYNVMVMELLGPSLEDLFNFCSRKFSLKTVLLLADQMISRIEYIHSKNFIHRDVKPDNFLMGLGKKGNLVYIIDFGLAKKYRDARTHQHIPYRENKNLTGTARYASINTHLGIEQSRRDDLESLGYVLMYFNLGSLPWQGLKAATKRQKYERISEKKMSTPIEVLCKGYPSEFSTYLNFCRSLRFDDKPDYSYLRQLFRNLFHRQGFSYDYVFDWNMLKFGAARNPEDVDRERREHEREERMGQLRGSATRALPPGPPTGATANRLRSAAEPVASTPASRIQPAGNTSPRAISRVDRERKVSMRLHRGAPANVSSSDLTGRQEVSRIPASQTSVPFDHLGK
Glycogen synthase kinase-3 beta, sequence (P49841 whole entry, looked up): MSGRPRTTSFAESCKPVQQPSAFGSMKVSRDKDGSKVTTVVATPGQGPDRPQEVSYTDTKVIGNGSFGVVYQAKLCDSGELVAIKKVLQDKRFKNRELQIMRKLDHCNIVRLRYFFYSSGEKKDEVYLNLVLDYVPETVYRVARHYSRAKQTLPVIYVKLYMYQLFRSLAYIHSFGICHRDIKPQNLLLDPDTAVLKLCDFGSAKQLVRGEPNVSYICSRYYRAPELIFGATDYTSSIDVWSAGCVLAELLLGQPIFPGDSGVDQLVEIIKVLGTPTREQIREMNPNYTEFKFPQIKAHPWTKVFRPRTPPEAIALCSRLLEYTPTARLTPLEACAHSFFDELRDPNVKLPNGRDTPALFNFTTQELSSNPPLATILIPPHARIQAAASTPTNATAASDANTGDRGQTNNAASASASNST
Serine/threonine-protein kinase WNK4 (Homo sapiens), sequence (Q96J92 whole entry): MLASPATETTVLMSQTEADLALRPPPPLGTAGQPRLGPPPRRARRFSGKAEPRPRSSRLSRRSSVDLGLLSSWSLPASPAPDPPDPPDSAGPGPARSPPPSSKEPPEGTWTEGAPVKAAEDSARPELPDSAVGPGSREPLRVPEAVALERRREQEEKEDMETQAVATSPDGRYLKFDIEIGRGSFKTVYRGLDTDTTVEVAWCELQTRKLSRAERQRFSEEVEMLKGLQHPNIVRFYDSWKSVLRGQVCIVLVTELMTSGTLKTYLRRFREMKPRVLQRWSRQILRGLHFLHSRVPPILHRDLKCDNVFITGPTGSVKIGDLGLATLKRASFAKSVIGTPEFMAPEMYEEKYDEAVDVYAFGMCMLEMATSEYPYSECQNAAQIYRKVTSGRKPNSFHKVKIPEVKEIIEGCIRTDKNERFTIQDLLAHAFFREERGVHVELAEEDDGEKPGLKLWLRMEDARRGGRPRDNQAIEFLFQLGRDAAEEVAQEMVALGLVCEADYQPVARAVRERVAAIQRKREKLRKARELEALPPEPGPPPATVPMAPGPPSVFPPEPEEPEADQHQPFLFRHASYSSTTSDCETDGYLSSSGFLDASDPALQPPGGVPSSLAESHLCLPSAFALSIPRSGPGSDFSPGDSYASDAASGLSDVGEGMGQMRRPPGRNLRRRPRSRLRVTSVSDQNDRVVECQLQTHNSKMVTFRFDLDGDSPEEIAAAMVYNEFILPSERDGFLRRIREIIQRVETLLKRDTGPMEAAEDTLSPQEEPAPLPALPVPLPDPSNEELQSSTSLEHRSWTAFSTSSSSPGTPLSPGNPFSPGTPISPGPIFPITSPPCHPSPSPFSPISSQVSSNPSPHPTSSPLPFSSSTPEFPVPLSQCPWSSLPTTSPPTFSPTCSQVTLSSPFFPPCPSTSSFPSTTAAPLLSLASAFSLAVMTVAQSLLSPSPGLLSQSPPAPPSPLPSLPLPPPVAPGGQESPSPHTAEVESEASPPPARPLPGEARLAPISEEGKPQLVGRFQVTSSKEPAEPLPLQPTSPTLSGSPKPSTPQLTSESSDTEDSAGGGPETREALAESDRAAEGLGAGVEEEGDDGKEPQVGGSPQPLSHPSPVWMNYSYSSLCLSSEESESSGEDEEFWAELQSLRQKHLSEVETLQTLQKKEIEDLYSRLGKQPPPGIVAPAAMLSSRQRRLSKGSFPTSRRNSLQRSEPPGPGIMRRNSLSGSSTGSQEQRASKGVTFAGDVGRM
Protein-tyrosine kinase 6, sequence (Q13882 whole entry): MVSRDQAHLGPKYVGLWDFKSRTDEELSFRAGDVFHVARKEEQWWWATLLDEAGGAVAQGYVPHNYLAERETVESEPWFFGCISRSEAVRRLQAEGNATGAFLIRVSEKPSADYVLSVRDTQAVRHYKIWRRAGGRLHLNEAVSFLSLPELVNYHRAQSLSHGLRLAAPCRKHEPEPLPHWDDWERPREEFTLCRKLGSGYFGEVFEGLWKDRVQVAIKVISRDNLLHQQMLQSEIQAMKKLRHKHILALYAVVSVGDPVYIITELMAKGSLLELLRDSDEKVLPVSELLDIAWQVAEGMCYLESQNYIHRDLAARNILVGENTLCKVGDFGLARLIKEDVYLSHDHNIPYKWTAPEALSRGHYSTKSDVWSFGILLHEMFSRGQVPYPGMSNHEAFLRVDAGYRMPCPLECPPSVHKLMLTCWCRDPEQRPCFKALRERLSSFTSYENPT
Serine/threonine-protein kinase SBK1 (Homo sapiens), sequence (Q52WX2 whole entry): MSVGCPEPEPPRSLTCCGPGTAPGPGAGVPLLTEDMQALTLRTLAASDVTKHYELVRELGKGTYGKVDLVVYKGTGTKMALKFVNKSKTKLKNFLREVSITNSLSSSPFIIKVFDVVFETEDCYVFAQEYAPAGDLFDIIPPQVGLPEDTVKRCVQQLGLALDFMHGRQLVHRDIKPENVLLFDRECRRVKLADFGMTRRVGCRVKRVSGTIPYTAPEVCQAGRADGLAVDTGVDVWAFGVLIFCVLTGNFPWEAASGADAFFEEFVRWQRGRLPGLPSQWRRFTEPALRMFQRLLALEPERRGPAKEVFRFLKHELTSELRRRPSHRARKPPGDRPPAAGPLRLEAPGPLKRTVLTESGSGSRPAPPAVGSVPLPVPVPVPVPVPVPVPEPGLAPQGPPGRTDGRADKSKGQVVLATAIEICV
Mitogen-activated protein kinase 3, sequence (P27361 whole entry): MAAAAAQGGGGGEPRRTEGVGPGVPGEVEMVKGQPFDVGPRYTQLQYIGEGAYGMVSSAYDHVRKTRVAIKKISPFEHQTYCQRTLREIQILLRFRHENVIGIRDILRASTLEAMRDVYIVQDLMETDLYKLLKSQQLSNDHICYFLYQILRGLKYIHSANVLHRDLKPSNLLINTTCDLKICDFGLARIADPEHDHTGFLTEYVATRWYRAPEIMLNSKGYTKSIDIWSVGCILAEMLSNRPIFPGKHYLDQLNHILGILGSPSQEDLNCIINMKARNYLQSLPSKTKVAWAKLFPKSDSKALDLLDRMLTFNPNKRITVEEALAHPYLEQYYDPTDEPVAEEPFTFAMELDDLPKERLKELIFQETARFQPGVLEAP
Wee1-like protein kinase (Homo sapiens), sequence (P30291 whole entry, looked up): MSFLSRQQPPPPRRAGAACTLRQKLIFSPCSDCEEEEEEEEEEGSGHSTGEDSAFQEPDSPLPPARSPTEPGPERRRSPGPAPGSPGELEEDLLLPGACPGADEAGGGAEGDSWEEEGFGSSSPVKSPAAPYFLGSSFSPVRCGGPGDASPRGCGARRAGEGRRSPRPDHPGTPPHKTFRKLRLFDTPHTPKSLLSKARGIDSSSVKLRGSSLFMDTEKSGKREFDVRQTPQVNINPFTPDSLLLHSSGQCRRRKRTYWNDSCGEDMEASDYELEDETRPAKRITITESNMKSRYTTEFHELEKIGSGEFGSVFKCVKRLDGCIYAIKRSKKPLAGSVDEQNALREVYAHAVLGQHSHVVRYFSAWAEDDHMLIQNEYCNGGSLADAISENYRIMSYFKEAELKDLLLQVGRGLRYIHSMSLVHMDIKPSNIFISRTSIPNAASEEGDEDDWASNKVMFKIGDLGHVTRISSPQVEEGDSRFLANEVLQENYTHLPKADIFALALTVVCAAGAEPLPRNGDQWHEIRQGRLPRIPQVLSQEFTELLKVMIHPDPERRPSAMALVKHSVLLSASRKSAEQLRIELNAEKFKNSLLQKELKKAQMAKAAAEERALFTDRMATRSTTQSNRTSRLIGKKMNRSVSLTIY
RAC-beta serine/threonine-protein kinase (Homo sapiens), sequence (P31751 whole entry, canonical isoform): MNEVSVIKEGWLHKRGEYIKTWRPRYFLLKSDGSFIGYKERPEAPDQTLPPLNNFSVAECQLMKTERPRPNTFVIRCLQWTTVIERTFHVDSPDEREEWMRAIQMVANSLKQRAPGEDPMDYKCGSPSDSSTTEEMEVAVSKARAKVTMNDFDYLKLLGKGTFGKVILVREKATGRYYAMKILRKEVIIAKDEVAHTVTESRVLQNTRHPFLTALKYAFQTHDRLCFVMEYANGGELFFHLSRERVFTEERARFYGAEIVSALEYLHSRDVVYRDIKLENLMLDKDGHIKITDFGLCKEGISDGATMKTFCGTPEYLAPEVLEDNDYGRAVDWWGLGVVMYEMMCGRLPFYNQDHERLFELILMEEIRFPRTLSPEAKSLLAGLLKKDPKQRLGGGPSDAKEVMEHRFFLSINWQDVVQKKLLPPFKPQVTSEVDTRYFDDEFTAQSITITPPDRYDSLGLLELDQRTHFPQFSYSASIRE
Tyrosine-protein kinase Lyn, sequence (P07948 2-512 limits assumed): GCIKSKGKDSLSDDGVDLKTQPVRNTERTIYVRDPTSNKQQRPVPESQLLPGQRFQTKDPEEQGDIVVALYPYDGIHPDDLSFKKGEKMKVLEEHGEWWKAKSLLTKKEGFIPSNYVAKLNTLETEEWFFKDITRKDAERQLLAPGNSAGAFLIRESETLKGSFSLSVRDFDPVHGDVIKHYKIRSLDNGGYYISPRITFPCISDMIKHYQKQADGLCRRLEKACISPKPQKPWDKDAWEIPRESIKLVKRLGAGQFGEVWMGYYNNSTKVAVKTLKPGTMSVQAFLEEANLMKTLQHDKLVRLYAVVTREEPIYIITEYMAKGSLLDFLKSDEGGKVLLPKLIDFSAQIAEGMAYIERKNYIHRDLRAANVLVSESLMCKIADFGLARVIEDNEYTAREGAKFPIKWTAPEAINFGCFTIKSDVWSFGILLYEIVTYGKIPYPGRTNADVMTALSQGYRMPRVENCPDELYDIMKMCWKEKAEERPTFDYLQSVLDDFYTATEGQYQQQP

## Cc1cc([C@@H](C)Nc2ccccc2C(=O)O)c2nc(N3CCOCC3)cc(=O)n2c1 [AZD-6482]
[1]
  % of control: 100%

## CCc1cc(Nc2nccc(-c3c(-c4ccc(OC)c(C(=O)Nc5c(F)cccc5F)c4)nc4ccccn34)n2)c(OC)cc1N1CCC(N2CCN(S(C)(=O)=O)CC2)CC1
[2]
  IC50: 357 nM
[3]
  % of inhibition: 37%

## Cc1cnc(Nc2ccc(F)cc2Cl)nc1-c1c[nH]c(C(=O)N[C@H](CO)c2cccc(Cl)c2)c1
[4]
  % of inhibition: 0%

## CN(C)C/C=C/C(=O)Nc1ccc(C(=O)N2CCCC(Nc3ncc(Cl)c(-c4c[nH]c5ccccc45)n3)C2)cc1 (stereo not drawn)
[5]
  % of control: 80%

## CN1Cc2nccc(-c3cn(C)nc3-c3ccc(F)cc3)c2C1=O
[6]
  % of inhibition: -4%

## Cn1cc(-n2cnc3c(NCc4nc5cc(Cl)c(Cl)cc5[nH]4)nc(N4CCOCC4)nc32)cn1
[7]
  % of inhibition: 4.17%

## Cc1cc(F)c(C(=O)Nc2cccc(-c3nncn3C(C)C)n2)cc1-n1cnc(C2CC2)c1
[8]
  % of control: 100%

## CN(C)CCOc1ccc(-c2nc(-c3ccncc3)c(-c3ccc4c(c3)CC/C4=N\O)[nH]2)cc1
[9]
  % of control: 100%
[10]
  % of control: 88%

## O[C@H]1CC[C@H](Nc2ncc3nc(Nc4c(F)cc(F)cc4F)n([C@H]4CCOC4)c3n2)CC1
[11]
  % of control: 73%

## CN(C(=O)c1cnn2cccnc12)c1cc2c(cc1N1CCOCC1)C(=O)N(C[C@@H](F)C(C)(C)O)C2
[12]
  dTM: -0.4 K

## CNC(=O)Nc1ccc(-c2nc(N3CC4CCC(C3)O4)c3cnn(C4CCC5(CC4)OCCO5)c3n2)cc1
[13]
  % of control: 95%
